This note sets out measurements from patent US10676437B2, “Fluorinated 4-(substituted amino)phenyl carbamate derivatives” (SciFluor Life Sciences, Inc., priority 2017, dated 2020).

Some results are limits rather than exact numbers.

Holding throughout (type): cell-based
The target in test [1] is KCNQ4 (Homo sapiens, UniProt P56696). The experiment in a line: Automated patch clamp, activation of KCNQ4 channels. As to conditions: for Selectivity KCNQ4 EC50 / KCNQ2/3 EC50: ratio of EC50 values. The procedure: (§1) Electrophysiological studies of the compounds were performed using the Nanion SyncroPatch automated patch clamp platform.
(§2) Kv7 channels were evaluated using a voltage protocol in which cells were voltage-clamped at a holding potential of −110 mV. Potassium currents were activated with a series of voltage steps from −110 mV to +50 mV in 10 mV intervals with 5.5 seconds between successive voltage steps. Each voltage step was 3 seconds in duration and immediately followed by a 1 second voltage step to −120 mV to generate an inward “tail” current to allow construction of activation (G-V) curves by plotting normalized peak tail current versus the potential of the activating voltage step. To obtain normalized values, peak current amplitudes for successive depolarizing pulses were normalized against the maximum tail current amplitude generated at +50 mV (Tatulian et al., Journal of Neuroscience 2001, 21 (15)).
(§3) Data was collected on the Syncropatch platform using PatchControl software (Nanion) and processed and analyzed using DataControl Software (Nanion). Normalized percent activation was calculated and activation curves were fit with a Boltzmann function to determine the midpoint voltage of activation (G-V midpoint) for both pre-compound and post-compound conditions for each of the 384-wells of a sealchip with Pipeline Pilot (Accelrys). The difference in G-V midpoint between pre-compound and post-compound conditions (Δ V0.5) was plotted as a function of concentration and concentration-response curves were fit with a three-parameter logistic equation {Y=Bottom+(Top−Bottom)/(1+10^(Log EC50−X))} for determination of the EC50 (Graphpad Prism).
On the technique in general: Patch clamp records ionic current or voltage across a cell membrane.

The target of test [2] is KCNQ3/5 (Homo sapiens, UniProt O43525+Q9NR82). The test can be described thus: Automated patch clamp, activation of KCNQ3/5 channels. As to conditions: for Selectivity KCNQ3/5 EC50 / KCNQ2/3 EC50: ratio of EC50 values. As to the method: as §1, §2, §3
Test [3] addresses T1, human Kv7.2/7.3 channels (Homo sapiens, UniProt O43525+O43526).
T1 construct: expressed in transfected cells
The experiment in a line: Syncropatch automated patch clamp, activation of recombinantly expressed human Kv7.2/7.3 (KCNQ2/3) channels in CHO cells. As to conditions: shift in G-V midpoint (Δ V0.5) vs concentration. The procedure:
The in vitro effects of a compound of the present application recombinantly expressed human Kv7.2/7.3 channels are assessed on Syncropatch high throughput electrophysiology platform.
CHO cells stably expressing human Kv7.2/7.3 channels were cultured in Ham's F-12 media (Hyclone, Cat # SH30022.02) supplemented with 10% Fetal Bovine Serum, 1×MEM non-essential amino acids, and 400 μg/ml G418 at 37° C. in 5% CO2. On the day of Syncropatch, the cells were washed once in DPBS (Hyclone, Cat # SH30028.03) for approximately 30 seconds. 1 ml of 1×0.015% Trypsin-EDTA GIBCO Cat #25300-054) was added and swirled around to cover the bottom of the flask, and allowed to sit on the cells for about 4 minutes (approximately 90% of the cells were lifted by light tapping of the flask). 10 ml of cold media (Ham's F-12 media (Hyclone, Cat # SH30022.02) supplemented with 10% Fetal Bovine Serum, 1×MEM non-essential amino acids, and 400 μg/ml G418) was added to inactivate Trypsin. The cells were then triturated until a single cell suspension was achieved, and the cell count was performed. The cells were then diluted to a concentration of 5×10^5/ml and placed into the “cell hotel” on the deck of the Syncropatch at 10° C. for about 1 hour to recover. 40 μL of the cell suspension was dispensed into each well of a 384-well Syncropatch chip by the onboard pipettor at the beginning of each Syncropatch assay.
The compounds to be tested were dissolved in DMSO to give 10 mM stock solutions. […]
Kv7 channels were evaluated using a voltage protocol in which cells were voltage-clamped at a holding potential of −110 mV. […]
Data was collected on the Syncropatch platform using PatchControl software (Nanion) and processed and analyzed using DataControl Software (Nanion). Normalized percent activation was calculated and activation curves were fit with a Boltzmann function to determine the midpoint voltage of activation (G-V midpoint) for both pre-compound and post-compound conditions for each of the 384-wells of a sealchip with Pipeline Pilot (Accelrys). […]

As usually defined, the EC50 is the concentration at which the effect is half-maximal. Take `Cc1c(F)c(N2CCc3cc(F)ccc3C2)c(F)c(C)c1NC(=O)CC(C)(C)C` [Compound 1, N-(3,5-difluoro-4-(6-fluoro-3,4-dihydroisoquinolin-2 (1H)-yl)-2,6-dimethylphenyl)-3,3-dimethylbutanamide]: in test [1], the EC50 is ≥ 10 µM and the “Selectivity KCNQ4 EC50 / KCNQ2/3 EC50” value is on record as “VI (VI: ≥100)”. Also, in test [2], the EC50 is 1 to 10 µM and the “Selectivity KCNQ3/5 EC50 / KCNQ2/3 EC50” value was “III (III: 5 to <10)”. Moreover, the EC50 in test [3] lay within 0.1 to 1 µM.
In the case of `Cc1c(F)c(NCc2ccc(F)cc2)c(F)c(C)c1NC(=O)CC(C)(C)C` [Compound 2, N-(3,5-difluoro-4-((4-fluorobenzyl)amino)-2,6-dimethylphenyl)-3,3-dimethylbutanamide], in test [1], the EC50 lay within 1 to 10 µM and the “Selectivity KCNQ4 EC50 / KCNQ2/3 EC50” value is recorded as “V (V: 50 to <100)”. In test [2], the EC50 fell in the range of 0.1 to 1 µM and the “Selectivity KCNQ3/5 EC50 / KCNQ2/3 EC50” value is listed as “IV (IV: 10 to <50)”. For the same compound, in test [3], the EC50 is < 0.1 µM.
The like results for `C#CCN(Cc1ccc(F)cc1)c1ccc(NC(=O)OCC)c(N)c1` [Control, reference compound] were, in that order, 0.1 to 1 µM, “IV (IV: 10 to <50)”, < 0.1 µM, “I (I: <1)” and < 0.1 µM.
